IC50 data for 34 compounds are collected here from patent US8466161B2, “Hydroxamate derivative, a production method for the same, and a pharmaceutical composition comprising the same” (Chong Kun Dang Pharmaceutical Corp., priority 2009, dated 2013).

The term IC50 denotes the concentration needed to halve the response being measured. A low value points to greater potency in that assay.

In this experiment the test system is HL60 cell line. The experiment in a line: Inhibitory effect on growth of HL60 cell line (MTT). The experiment is classed as cell-based. The conditions noted are these: Homo sapiens, HL-60, 72 h, 3 days culture. As to the method: In the culture of HL60 cells, 10% FBS-containing RPMI1640 medium was used Each of test substances was serially diluted in DMSO to a concentration of 10 mg/ml and serially diluted in PBS to a final concentration ranging from 100 μg/ml to 0.03 μg/ml. 20 μl (micro-liter) of each of the serially diluted test substances and 180 μl (micro-liter) of a medium containing 60×10^4 cells/ml were added to a 96-well plate and cultured under conditions of 37° C. and 5% CO2 for 3 days. After completion of the culture, 50 μl (micro-liter) of a solution of 1.25 mg/ml MTT (3-(4,5-dimethylthiazol-2-yl)-2,5-diphenyltetrazolium bromide) in PBS was added to each well of the plate and incubated at 37° C. for 3 hours. The formed formazan crystal was dissolved in 150 μl (micro-liter) of DMSO, and the absorbance at 570 nm was measured.
Compound `COc1ccc(C(=O)N(CCCCCCC(=O)NO)c2ccc(-c3ccc4cc[nH]c4c3)cc2)cc1` [Compound 180, N-(4-(1H-indol-6-yl)phenyl)-N-(7-(hydroxyamino)-7-oxoheptyl)-4-methoxybenzamide] displayed an IC50 of 20 to 50 nM.

`O=C(CCCCCCN(C(=O)c1cccnc1)c1ccc(-c2ccc3cc[nH]c3c2)cc1)NO` [Compound 181, N-(4-(1H-indol-6-yl)phenyl)-N-(7-(hydroxyamino)-7-oxoheptyl)nicotinamide] returned an IC50 of 20 to 50 nM.

With `O=C(CCCCCCN(C(=O)c1ccccn1)c1ccc(-c2ccc3cc[nH]c3c2)cc1)NO` [Compound 211, N-(4-(1H-indol-6-yl)phenyl)-N-(7-(hydroxyamino)-7-oxoheptyl)picolinamide], the IC50 was in the range of 50 to 100 nM.

`COc1cccc(NC(=O)N(CCCCCCC(=O)NO)c2ccc(-c3ccc4cc[nH]c4c3)cc2)c1` [Compound 256, 7-(1-(4-(1H-indol-6-yl)phenyl)-3-(3-methoxyphenyl)ureido)-N-hydroxyheptanamide]: the IC50 lay in the range of 50 to 100 nM.

Take `COc1cc(NC(=O)N(CCCCCCC(=O)NO)c2ccc(-c3ccc4cc[nH]c4c3)cc2)cc(OC)c1` [Compound 260, 7-(1-(4-(1H-indol-6-yl)phenyl)-3-(3,5-dimethoxyphenyl)ureido)-N-hydroxyheptanamide]: the IC50 was in the range of 50 to 100 nM.

The compound `O=C(CCCCCCN(c1ccc(-c2ccc3cc[nH]c3c2)cc1)S(=O)(=O)c1cccnc1)NO` [Compound 263, 7-(N-(4-(1H-indol-6-yl)phenyl)pyridine-3-sulfonamido)-N-hydroxyheptanamide] displayed an IC50 of 20 to 50 nM.

With `CS(=O)(=O)N(CCCCCCC(=O)NO)c1ccc(-c2ccc3cc[nH]c3c2)cc1` [Compound 264, 7-(N-(4-(1H-indol-6-yl)phenyl)methylsulfonamido)-N-hydroxyheptanamide], the IC50 was in the range of 20 to 50 nM.

Take `CN(C)CC(=O)N(CCCCCCC(=O)NO)c1ccc(-c2ccc3cc[nH]c3c2)cc1` [Compound 265, 7-(N-(4-(1H-indol-6-yl)phenyl)-2-(dimethylamino)acetamido)-N-hydroxyheptanamide]: the IC50 is 50 to 100 nM.

In turn, `CCOC(=O)N(CCCCCCC(=O)NO)c1ccc(-c2ccc3cc[nH]c3c2)cc1` [Compound 267, Ethyl 4-(1H-indol-6-yl)phenyl(7-(hydroxyamino)-7-oxoheptyl)carbamate] returned a half-maximal inhibitory concentration (IC50) of 50 to 100 nM.

`Cn1ncc2ccc(-c3ccc(N(CCCCCCC(=O)NO)C(=O)c4cccnc4)cc3)cc21` [Compound 270, N-(7-(hydroxyamino)-7-oxoheptyl)-N-(4-(1-methyl-1H-indazol-6-yl)phenyl)nicotinamide]: the IC50 was in the range of 50 to 100 nM.

In the case of `CNC(=O)N(CCCCCCC(=O)NO)c1ccc(-c2ccc3cc[nH]c3c2)cc1` [Compound 275, 7-(1-(4-(1H-indol-6-yl)phenyl)-3-methylureido)-N-hydroxyheptanamide], the IC50 is 50 to 100 nM.

For `CCS(=O)(=O)N(CCCCCCC(=O)NO)c1ccc(-c2ccc3cc[nH]c3c2)cc1` [Compound 276, 7-(N-(4-(1H-indol-6-yl)phenyl)ethylsulfonamido)-N-hydroxyheptanamide], the IC50 lay within 20 to 50 nM.

`CN(C)S(=O)(=O)N(CCCCCCC(=O)NO)c1ccc(-c2ccc3cc[nH]c3c2)cc1` [Compound 277, 7-((4-(1H-indol-6-yl)phenyl)(N,N-dimethylsulfamoyl)amino)-N-hydroxyheptanamide] displayed an IC50 of 50 to 100 nM.

For the compound `Cn1ncc2ccc(-c3ccc(N(CCCCCCC(=O)NO)S(C)(=O)=O)cc3)cc21` [Compound 284, N-hydroxy-7-(N-(4-(1-methyl-1H-indazol-6-yl)phenyl)methylsulfonamido)heptanamide], the IC50 is 50 to 100 nM.

`CCNC(=O)N(CCCCCCC(=O)NO)c1ccc(-c2ccc3cc[nH]c3c2)cc1` [Compound 295, 7-(1-(4-(1H-indol-6-yl)phenyl)-3-ethylureido)-N-hydroxyheptanamide] registered an IC50 of 50 to 100 nM.

In turn, `Cc1cc2cc(-c3ccc(N(CCCCCCC(=O)NO)S(C)(=O)=O)cc3)ccc2[nH]1` [Compound 296, N-hydroxy-7-(N-(4-(2-methyl-1H-indol-5-yl)phenyl)methylsulfonamido)heptanamide] showed an IC50 of 50 to 100 nM.

Consider `CS(=O)(=O)N(CCCCCCC(=O)NO)c1ccc(-c2ccc3[nH]ccc3c2)cc1` [Compound 303, 7-(N-(4-(1H-indol-5-yl)phenyl)methylsulfonamido)-N-hydroxyheptanamide], for which the IC50 lay within 10 to 20 nM.

The compound `O=C(CCCCCCN(C(=O)c1ccccn1)c1ccc(-c2ccc3[nH]ccc3c2)cc1)NO` [Compound 305, N-(4-(1H-indol-5-yl)phenyl)-N-(7-(hydroxyamino)-7-ooxheptyl)picolinamide] registered an IC50 of 20 to 50 nM.

With `O=C(CCCCCCN(C(=O)N1CCOCC1)c1ccc(-c2ccc3cc[nH]c3c2)cc1)NO` [Compound 306, N-(4-(1H-indol-6-yl)phenyl)-N-(7-(hydroxyamino)-7-oxoheptyl)morpholine-4-carboxamide], the IC50 is 10 to 20 nM.

`CN1CCN(C(=O)N(CCCCCCC(=O)NO)c2ccc(-c3ccc4cc[nH]c4c3)cc2)CC1` [Compound 309, N-(4-(1H-indol-6-yl)phenyl)-N-(7-(hydroxyamino)-7-oxoheptyl)-4-methylpiperazine-1-carboxamide] displayed an IC50 of 10 to 20 nM.

`CN1CCN(C(=O)N(CCCCCCC(=O)NO)c2ccc(-c3ccc4[nH]ccc4c3)cc2)CC1` [Compound 313, N-(4-(1H-indol-5-yl)phenyl)-N-(7-(hydroxyamino)-7-oxoheptyl)-4-methylpiperazine-1-carboxamide] gave an IC50 of 20 to 50 nM.

`CCS(=O)(=O)N(CCCCCCC(=O)NO)c1ccc(-c2ccc3[nH]ccc3c2)cc1` [Compound 314, 7-(N-(4-(1H-indol-5-yl)phenyl)ethylsulfonamido)-N-hydroxyheptanamide] registered an IC50 of 20 to 50 nM.

As for `CS(=O)(=O)N(CCCCCCC(=O)NO)c1ccc(-c2ccc3cc[nH]c3c2)nc1` [Compound 326, 7-(N-(6-(1H-indol-6-yl)pyridin-3-yl)methylsulfonamido)-N-hydroxyheptanamide], the IC50 lay in the range of 20 to 50 nM.

The compound `Cn1ncc2ccc(-c3ccc(N(CCCCCCC(=O)NO)S(C)(=O)=O)cn3)cc21` [Compound 327, N-hydroxy-7-(N-(6-(1-methyl-1H-indazol-6-yl)pyridin-3-yl)methylsulfonamido)heptanamide] displayed an IC50 of 50 to 100 nM.

In turn, `CS(=O)(=O)N(CCCCCCC(=O)NO)c1ccc(-c2ccc3[nH]ccc3c2)nc1` [Compound 328, 7-(N-(6-(1H-indol-5-yl)pyridin-3-yl)methylsulfonamido)-N-hydroxyheptanamide] displayed an IC50 of 20 to 50 nM.

On to `CN1CCCN(C(=O)N(CCCCCCC(=O)NO)c2ccc(-c3ccc4cc[nH]c4c3)cc2)CC1` [Compound 330, N-(4-(1H-indol-6-yl)phenyl)-N-(7-(hydroxyamino)-7-oxoheptyl)-4-methyl-1,4-diazepane-1-carboxamide], for which the IC50 was 50 to 100 nM.

Regarding `CCN1CCN(C(=O)N(CCCCCCC(=O)NO)c2ccc(-c3ccc4[nH]ccc4c3)cc2)CC1` [Compound 340, N-(4-(1H-indol-5-yl)phenyl)-4-ethyl-N-(7-(hydroxyamino)-7-oxoheptyl)piperazine-1-carboxamide], the IC50 was in the range of 10 to 20 nM.

On to `CN1CCN(C(=O)N(CCCCCCC(=O)NO)c2ccc(-c3ccc4c(ccn4C)c3)cc2)CC1` [Compound 341, N-(7-(hydroxyamino)-7-oxoheptyl)-4-methyl-N-(4-(1-methyl-1H-indol-5-yl)phenyl)piperazine-1-carboxamide], for which the IC50 is 20 to 50 nM.

With `CN1CCN(S(=O)(=O)N(CCCCCCC(=O)NO)c2ccc(-c3ccc4cnn(C)c4c3)cc2)CC1` [Compound 342, N-hydroxy-7-(4-methyl-N-(4-(1-methyl-1H-indazol-6-yl)phenyl)piperazine-1-sulfonamido)heptanamide], the IC50 lay in the range of 20 to 50 nM.

Take `CN1CCN(C(=O)N(CCCCCCC(=O)NO)c2ccc(-c3ccc4c(cnn4C)c3)cc2)CC1` [Compound 350, N-(7-(hydroxyamino)-7-oxoheptyl)-4-methyl-N-(4-(1-methyl-1H-indazol-5-yl)phenyl)piperazine-1-carboxamide]: the IC50 was 20 to 50 nM.

With `CCN1CCN(C(=O)N(CCCCCCC(=O)NO)c2ccc(-c3ccc4c(cnn4C)c3)cc2)CC1` [Compound 351, 4-ethyl-N-(7-(hydroxyamino)-7-oxoheptyl)-N-(4-(1-methyl-1H-indazol-5-yl)phenyl)piperazine-1-carboxamide], the IC50 lay in the range of 20 to 50 nM.

`CN1CCN(C(=S)N(CCCCCCC(=O)NO)c2ccc(-c3ccc4cc[nH]c4c3)cc2)CC1` [Compound 357, 7-(N-(4-(1H-indol-6-yl)phenyl)-4-methylpiperazine-1-carbothioamido)-N-hydroxyheptanamide] showed an IC50 of 50 to 100 nM.

On to `CN1CCN(C(=S)N(CCCCCCC(=O)NO)c2ccc(-c3ccc4[nH]ccc4c3)cc2)CC1` [Compound 358, 7-(N-(4-(1H-indol-5-yl)phenyl)-4-methylpiperazine-1-carbothioamido)-N-hydroxyheptanamide], for which the IC50 lay in the range of 20 to 50 nM.

The compound `CN1CCN(C(=S)N(CCCCCCC(=O)NO)c2ccc(-c3ccc4c(cnn4C)c3)cc2)CC1` [Compound 359, N-hydroxy-7-(4-methyl-N-(4-(1-methyl-1H-indazol-5-yl)phenyl)piperazine-1-thiocarboamido)heptanamide] had an IC50 of 20 to 50 nM.
